Read-outs that look alike come from different tables or passages of the source.
Key:
[1] = target: phosphorylated PDK1 (Homo sapiens (Human), UniProt O15530); test: PDK1 kinase assay (coupled PDK1/AKT/FAM-crosstide, IMAP); assay type: biochemical; conditions: 0.5 nM phosphorylated PDK1, 24 μM ATP; read-out: Inhibition of phospo-PDK1 in vitro IC50
[2] = tested on: phospho-akt (Thr308); test: phospho-akt (Thr308) MSD ELISA in PC-3 cells; assay type: cell-based
Method: PC-3 cells were harvested by trypsin and counted. Cells were plated in coated 96-well flat bottom plates (plate 15,000 cells/well in 100 ul growth media (10% FBS, 1× pen-strep) an place in an incubator overnight.
Subject inhibitors were stocked at 50 mM, then diluted to 30 mM (4.8 μl cpd plus […] DMSO) in 100% DMSO. Three-fold dilutions were performed from 30 mM stock. (4 μl into 8 ul 100% DMSO). Aliquots of 1.0 μl of inhibitor solution were transferred into SF Medium (using deep well block).
Control wells were prepared as follows. For DMSO high controls, 1.0 μl of 100% DMSO was added into 1.0 ml SF.
MSD plates were blocked for 1 hour by adding 150 μl of Blocking Solution (3% BSA) to each well. The MSD plates were washed 4× with TBST, and 50 μl lysates were transferred to MSD plate and place on plate shaker shake at 4 degrees O/N, light shaking (speed 3.5). The plate was washed 4× with TBST.
25 μl of Ab detection solution was added to each well. The plate was sealed and incubated 1 hr RT, light shaking (speed 3.5). The plate was washed 4 times with TBST. 150 μl of Read Buffer was added (5 mls 4×MSD Read Buffer+15 mls water). Finally the plate was read immediately on the MSD plate reader.

[3] = Homo sapiens, PC-3, 2 h, PC-3 cells, 2 hours, no serum, read-out: Inhibition of P308 Akt in cells using MSD EC50
[4] = Homo sapiens, PC-3, 2 h, PC-3 cells, 2 hours, no serum, read-out: Reduction of Cellular Levels of Akt p308 By MSD ELISA (EC50 μM)

Chain of phosphorylated PDK1 (O15530 51-360): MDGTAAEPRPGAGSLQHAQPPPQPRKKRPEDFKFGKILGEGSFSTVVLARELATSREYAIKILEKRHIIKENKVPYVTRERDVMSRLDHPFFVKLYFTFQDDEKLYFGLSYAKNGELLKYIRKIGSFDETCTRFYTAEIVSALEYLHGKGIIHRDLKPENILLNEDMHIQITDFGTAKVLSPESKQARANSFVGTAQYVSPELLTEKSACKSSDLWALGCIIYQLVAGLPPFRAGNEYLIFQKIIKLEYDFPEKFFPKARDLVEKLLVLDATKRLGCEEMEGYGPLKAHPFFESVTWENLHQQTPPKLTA

Structure (SMILES) | IC50 [1] | EC50 [2, 3] | EC50 [2, 4] | EC50 ([2]; PC-3 cells, 2 hours, no serum, read-out: Inhibition of P308 Akt in cells using MSD EC50) | inhibition at 1 µM ([2]; Homo sapiens, PC-3 cells, at 1 μM, read-out: Percent Inhibition of phospho-Akt (308) By MSD ELISA) | inhibition at 10 µM ([2]; Homo sapiens, PC-3 cells, at 10 μM, read-out: Percent Inhibition of phospho-Akt (308) By MSD ELISA) | EC50 ([2]; Homo sapiens, PC-3, 2 h, read-out: Inhibition of P308 Akt in cells using MSD EC50)
O=C(NCc1cccc(-c2c[nH]c3nccc(Cl)c23)c1)c1cccn(Cc2ccc(F)c(F)c2)c1=O [Cpd 50] | < 0.5 µM | 1 to 5 µM |  |  |  |  | 
O=C(NCc1cccc(-c2c[nH]c3ncc(-c4ccncc4)cc23)c1)c1cccn(Cc2ccc(F)c(F)c2)c1=O [Cpd 48] | < 0.5 µM | < 1 µM |  |  |  |  | 
CCCNC(=O)c1cnc2[nH]cc(-c3cccc(CNC(=O)c4cccn(Cc5ccc(F)c(F)c5)c4=O)c3)c2c1 [Cpd 29] | < 0.5 µM | < 1 µM | < 1 µM |  |  |  | 
CN(C)C(=O)c1cc(-c2c[nH]c3ncccc23)cc(CNC(=O)c2cccn(Cc3ccc(F)c(F)c3)c2=O)n1 [Cpd 181] | < 0.5 µM | 1 to 5 µM |  |  |  |  | 
O=C(NCc1ccnc(-c2c[nH]c3ncccc23)c1)c1cccn(Cc2ccc(F)c(F)c2)c1=O [Cpd 285] | < 0.5 µM | 1 to 5 µM | 1 to 5 µM |  |  |  | 
NCc1cnc2[nH]cc(-c3cccc(CNC(=O)c4cccn(Cc5ccc(F)c(F)c5)c4=O)c3)c2c1 [Cpd 37] | < 0.5 µM |  |  | 1 to 5 µM |  |  | 
O=C(O)c1cnc2[nH]cc(-c3cccc(CNC(=O)c4cccn(Cc5ccc(F)c(F)c5)c4=O)c3)c2c1 [Cpd 20] | < 0.5 µM |  | > 5 µM |  |  |  | 
O=C(NC(COc1ccc2[nH]c(=O)[nH]c2c1)c1ccc(F)cc1)c1cccn(Cc2ccc(F)c(F)c2)c1=O (stereo not shown) [Cpd 147] | < 0.5 µM | < 1 µM | < 1 µM |  |  |  | 
CCNC(=O)c1cnc2[nH]cc(-c3cccc(CNC(=O)c4cccn(Cc5ccc(F)c(F)c5)c4=O)c3)c2c1 [Cpd 28] | < 0.5 µM | < 1 µM | < 1 µM |  |  |  | 
O=C(NCc1cccc(-c2c[nH]c3ncc(-c4cccs4)cc23)c1)c1cccn(Cc2ccc(F)c(F)c2)c1=O [Cpd 51] | < 0.5 µM | 1 to 5 µM |  |  |  |  | 
CNC(=O)c1cc(-c2c[nH]c3ncccc23)cc(CNC(=O)c2cccn(Cc3ccc(F)c(F)c3)c2=O)n1 [Cpd 180] | < 0.5 µM | < 1 µM |  |  |  |  | 
O=C(NCc1cccc(-c2c[nH]c3ncc(Cl)cc23)c1)c1cccn(Cc2ccc(F)c(F)c2)c1=O [Cpd 22] | < 0.5 µM | 1 to 5 µM | 1 to 5 µM |  |  |  | 
O=C(NCc1noc(-c2c[nH]c3ncccc23)n1)c1cccn(Cc2ccc(Cl)c(Cl)c2)c1=O [Cpd 312] | < 0.5 µM | 1 to 5 µM |  |  | 25 to 75% | > 75% | 
CCNC(=O)C[C@@H](NC(=O)c1cccn(Cc2ccc(F)c(F)c2)c1=O)c1ccc(-c2c[nH]c3ncccc23)s1 [Cpd 31] | < 0.5 µM | 1 to 5 µM | 1 to 5 µM |  |  |  | 
O=C1Nc2cc(/C=C/CNC(=O)c3cccn(Cc4cc(F)c(F)c(F)c4)c3=O)ccc2/C1=C\c1ccccc1 [Cpd 209] | < 0.5 µM | > 5 µM |  |  |  |  | 
O=C(NCc1cccc(-c2c[nH]c3ncc(-c4ccsc4)cc23)c1)c1cccn(Cc2ccc(F)c(F)c2)c1=O [Cpd 331] | < 0.5 µM | 1 to 5 µM |  |  |  |  | 
CNC(=O)c1cnc2[nH]cc(-c3ccc(CNC(=O)c4cccn(Cc5ccc(F)c(F)c5)c4=O)s3)c2c1 [Cpd 40] | < 0.5 µM | 1 to 5 µM | 1 to 5 µM |  |  |  | 
O=C1Nc2cc(/C=C/CNC(=O)c3cccn(Cc4cc(F)c(F)c(F)c4)c3=O)ccc2/C1=C\c1cccnc1 [Cpd 194] | < 0.5 µM | < 1 µM |  |  |  |  | 
O=C1Nc2cc(/C=C/CNC(=O)c3cccn(Cc4cc(F)c(F)c(F)c4)c3=O)ccc2/C1=C/c1nccs1 [Cpd 203] | < 0.5 µM | 1 to 5 µM |  |  |  |  | 
O=C(NC(COc1ccc2[nH]c(=O)[nH]c2c1)c1ccc(OCc2ccccc2)cc1)c1cccn(Cc2cc(F)c(F)c(F)c2)c1=O (stereo not shown) [Cpd 186] | < 0.5 µM |  |  |  |  |  | > 5 µM
